“Also recorded” adds a separate entry of the source. Blank lines part the entries; values can stand above or below the molecule they belong to.
Columns and labels:
[1] = test system: GlyT2; conditions: read-out: GlyT2 IC50; cited from earlier work
[2] = following IV administration; cited from earlier work
[3] = test system: nerve ligation rat model of neuropathic pain; type: in vivo; conditions: 30 mg/kg ip, compared to vehicle
[4] = test system: male Sprague Dawley rats; test: Side effects in the analgesia study; type: in vivo, rat; conditions: 30 mg/kg ip
[5] = test system: GlyT1; conditions: cited from earlier work
[6] = target: T1, human GlyT2a (Homo sapiens, UniProt Q9Y345); type: cell-based
T1 sequence (Q9Y345 1-797): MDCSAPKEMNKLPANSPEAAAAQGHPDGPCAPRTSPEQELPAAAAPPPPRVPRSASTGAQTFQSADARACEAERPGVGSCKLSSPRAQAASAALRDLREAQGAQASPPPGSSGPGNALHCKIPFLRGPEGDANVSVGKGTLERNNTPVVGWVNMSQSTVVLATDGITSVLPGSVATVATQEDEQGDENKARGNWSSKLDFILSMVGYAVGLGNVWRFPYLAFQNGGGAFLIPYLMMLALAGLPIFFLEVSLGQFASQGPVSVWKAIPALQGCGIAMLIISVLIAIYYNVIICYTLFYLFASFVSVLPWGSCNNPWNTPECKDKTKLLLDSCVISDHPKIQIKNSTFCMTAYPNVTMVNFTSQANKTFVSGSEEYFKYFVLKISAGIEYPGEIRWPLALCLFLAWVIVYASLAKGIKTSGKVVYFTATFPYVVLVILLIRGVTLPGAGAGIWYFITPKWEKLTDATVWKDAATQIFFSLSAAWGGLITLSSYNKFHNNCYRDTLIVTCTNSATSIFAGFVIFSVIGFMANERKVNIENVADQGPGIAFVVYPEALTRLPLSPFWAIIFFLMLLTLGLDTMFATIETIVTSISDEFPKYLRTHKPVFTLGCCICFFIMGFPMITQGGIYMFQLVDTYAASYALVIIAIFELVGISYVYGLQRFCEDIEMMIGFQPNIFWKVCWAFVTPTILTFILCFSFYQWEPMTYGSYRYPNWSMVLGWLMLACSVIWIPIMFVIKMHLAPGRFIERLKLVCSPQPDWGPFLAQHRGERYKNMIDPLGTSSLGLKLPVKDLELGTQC

[7] = target: T2, human GlyT1b (Homo sapiens, UniProt P48067); type: cell-based; conditions: 3 μM (maximal concentration)
T2 sequence (P48067 1-652 isoform P48067-3): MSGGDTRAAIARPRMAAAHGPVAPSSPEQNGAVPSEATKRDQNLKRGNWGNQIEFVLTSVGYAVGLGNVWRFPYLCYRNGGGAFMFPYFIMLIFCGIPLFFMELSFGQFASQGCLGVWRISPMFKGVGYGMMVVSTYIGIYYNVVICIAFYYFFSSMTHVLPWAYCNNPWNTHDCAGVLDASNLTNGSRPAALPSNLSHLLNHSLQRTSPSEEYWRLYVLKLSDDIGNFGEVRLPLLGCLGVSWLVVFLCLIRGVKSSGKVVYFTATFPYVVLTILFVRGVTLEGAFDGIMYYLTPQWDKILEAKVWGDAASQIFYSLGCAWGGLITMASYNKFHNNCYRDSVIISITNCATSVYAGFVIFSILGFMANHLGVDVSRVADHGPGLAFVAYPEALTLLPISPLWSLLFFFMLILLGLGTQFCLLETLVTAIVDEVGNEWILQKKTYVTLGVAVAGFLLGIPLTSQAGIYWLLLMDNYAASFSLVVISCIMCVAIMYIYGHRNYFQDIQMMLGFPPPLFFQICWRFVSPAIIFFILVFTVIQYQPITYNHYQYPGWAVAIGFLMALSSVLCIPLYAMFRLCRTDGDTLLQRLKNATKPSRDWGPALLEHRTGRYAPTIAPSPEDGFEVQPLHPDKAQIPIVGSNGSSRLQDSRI

[8] = target: T3, GlyT2 (Homo sapiens, UniProt Q9Y345); type: cell-based
T3 sequence (Q9Y345 1-797): T1 sequence (Q9Y345 1-797)

[9] = Stability in human plasma; type: in vitro ADME
[10] = Stability in rat plasma; type: in vitro ADME
[11] = Stability in human liver microsomes; type: in vitro ADME; conditions: for half-life at 1 μM: human, human liver microsomes, pH 7.4
[12] = Stability in rat liver microsomes; type: in vitro ADME
[13] = target: T3, GlyT2; test: Electrophysiology washout assay; type: cell-based; conditions: IC50 concentration of inhibitor, after 25 minutes wash
[14] = target: T4, Adrenergic α2A receptor (Homo sapiens, UniProt P08913); test: Selectivity panel, displacement of radioactive ligand; type: binding; conditions: 10 μM
T4 sequence (P08913 1-465): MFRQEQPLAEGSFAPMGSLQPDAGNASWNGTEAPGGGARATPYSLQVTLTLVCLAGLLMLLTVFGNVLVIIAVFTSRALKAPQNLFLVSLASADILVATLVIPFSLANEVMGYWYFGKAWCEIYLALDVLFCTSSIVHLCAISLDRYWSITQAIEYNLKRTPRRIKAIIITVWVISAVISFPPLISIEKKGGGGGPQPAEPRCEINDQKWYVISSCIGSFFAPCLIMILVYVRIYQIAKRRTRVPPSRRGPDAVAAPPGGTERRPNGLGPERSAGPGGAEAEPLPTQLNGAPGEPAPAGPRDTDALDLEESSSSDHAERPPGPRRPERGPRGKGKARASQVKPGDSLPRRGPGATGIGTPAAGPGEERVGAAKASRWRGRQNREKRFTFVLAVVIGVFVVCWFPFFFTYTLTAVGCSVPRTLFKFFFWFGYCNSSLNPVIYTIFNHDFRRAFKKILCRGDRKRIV

[15] = target: norepinephrine transporter (Homo sapiens, UniProt P23975); test: as above; type: binding; conditions: 10 μM
norepinephrine transporter, sequence (P23975 whole entry, species assumed): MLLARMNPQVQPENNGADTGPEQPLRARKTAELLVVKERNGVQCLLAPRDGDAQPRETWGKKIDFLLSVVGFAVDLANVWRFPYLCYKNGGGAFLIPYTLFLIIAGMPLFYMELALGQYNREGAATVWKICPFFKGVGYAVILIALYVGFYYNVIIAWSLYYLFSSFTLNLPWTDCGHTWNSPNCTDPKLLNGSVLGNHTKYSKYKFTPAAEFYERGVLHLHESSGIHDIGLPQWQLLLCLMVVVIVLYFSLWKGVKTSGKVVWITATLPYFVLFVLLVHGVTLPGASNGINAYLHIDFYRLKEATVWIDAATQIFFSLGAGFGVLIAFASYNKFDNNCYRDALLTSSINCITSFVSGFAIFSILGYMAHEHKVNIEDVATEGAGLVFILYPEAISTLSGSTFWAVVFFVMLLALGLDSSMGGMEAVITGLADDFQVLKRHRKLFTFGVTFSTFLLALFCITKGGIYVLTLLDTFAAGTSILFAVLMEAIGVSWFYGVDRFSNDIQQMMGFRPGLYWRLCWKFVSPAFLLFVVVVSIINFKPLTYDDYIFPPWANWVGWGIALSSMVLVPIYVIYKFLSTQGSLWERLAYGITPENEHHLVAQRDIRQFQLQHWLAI

[16] = target: μ opioid receptor (μOR) (Homo sapiens, UniProt P35372); test: as above; type: binding; conditions: 10 μM
μ opioid receptor (μOR), sequence (P35372 whole entry, species assumed): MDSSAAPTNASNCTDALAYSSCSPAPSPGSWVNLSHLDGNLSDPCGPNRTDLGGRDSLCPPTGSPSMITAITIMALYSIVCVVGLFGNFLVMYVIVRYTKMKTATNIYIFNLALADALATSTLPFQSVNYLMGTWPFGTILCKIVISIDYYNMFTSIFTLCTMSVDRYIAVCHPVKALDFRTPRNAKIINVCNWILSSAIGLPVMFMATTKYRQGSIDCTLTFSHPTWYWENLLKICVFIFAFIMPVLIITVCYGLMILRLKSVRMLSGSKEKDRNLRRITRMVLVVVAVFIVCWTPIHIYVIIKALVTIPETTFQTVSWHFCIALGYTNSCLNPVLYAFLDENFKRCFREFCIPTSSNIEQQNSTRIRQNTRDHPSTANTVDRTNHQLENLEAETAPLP

[17] = target: μOR (Homo sapiens, UniProt P35372); test: μOR agonist/antagonist activity in AtT20 cells expressing μORs; type: cell-based; conditions: 1 μM
μOR, sequence (P35372 whole entry): as the sequence (P35372 whole entry, species assumed) above

[18] = test system: Nav channels; test: Pain target screen, Nav channels
[19] = test system: Cav channels; test: Pain target screen, Cav channels
[20] = target: α7 nicotinic acetylcholine receptors (Homo sapiens, UniProt P36544); test: Pain target screen, α7 nicotinic acetylcholine receptors
α7 nicotinic acetylcholine receptors, sequence (P36544 23-502): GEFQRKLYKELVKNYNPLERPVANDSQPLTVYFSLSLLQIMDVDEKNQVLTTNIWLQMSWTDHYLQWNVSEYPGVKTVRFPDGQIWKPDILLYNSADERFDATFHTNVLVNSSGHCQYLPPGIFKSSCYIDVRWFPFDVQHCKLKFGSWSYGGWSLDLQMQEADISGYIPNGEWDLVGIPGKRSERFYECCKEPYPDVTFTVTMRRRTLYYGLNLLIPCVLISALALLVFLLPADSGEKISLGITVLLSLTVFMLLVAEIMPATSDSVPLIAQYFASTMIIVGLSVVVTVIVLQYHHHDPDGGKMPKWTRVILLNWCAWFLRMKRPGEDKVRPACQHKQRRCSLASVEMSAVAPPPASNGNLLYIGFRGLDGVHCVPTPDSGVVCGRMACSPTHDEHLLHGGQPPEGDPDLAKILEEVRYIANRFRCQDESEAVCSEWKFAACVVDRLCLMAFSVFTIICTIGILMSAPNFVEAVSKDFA

[21] = target: CB1 (Homo sapiens, UniProt P21554); test: Lipid receptor screen, agonist/antagonist
CB1, sequence (P21554 whole entry, species assumed): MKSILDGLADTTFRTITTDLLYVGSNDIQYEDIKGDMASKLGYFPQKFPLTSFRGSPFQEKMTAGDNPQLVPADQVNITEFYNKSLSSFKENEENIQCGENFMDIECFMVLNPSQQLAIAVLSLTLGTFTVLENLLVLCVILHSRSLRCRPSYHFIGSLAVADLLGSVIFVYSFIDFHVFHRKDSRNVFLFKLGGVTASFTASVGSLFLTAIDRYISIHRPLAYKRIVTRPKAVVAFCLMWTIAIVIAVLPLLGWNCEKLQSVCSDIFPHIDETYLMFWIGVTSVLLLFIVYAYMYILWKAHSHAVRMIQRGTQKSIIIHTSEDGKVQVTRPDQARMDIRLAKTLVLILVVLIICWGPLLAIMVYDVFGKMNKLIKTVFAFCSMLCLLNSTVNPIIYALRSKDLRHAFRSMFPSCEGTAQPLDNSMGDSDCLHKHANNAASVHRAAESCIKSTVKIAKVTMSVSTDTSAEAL

[22] = target: CB2 (Homo sapiens, UniProt P34972); test: Lipid receptor screen, agonist/antagonist
CB2, sequence (P34972 whole entry, species assumed): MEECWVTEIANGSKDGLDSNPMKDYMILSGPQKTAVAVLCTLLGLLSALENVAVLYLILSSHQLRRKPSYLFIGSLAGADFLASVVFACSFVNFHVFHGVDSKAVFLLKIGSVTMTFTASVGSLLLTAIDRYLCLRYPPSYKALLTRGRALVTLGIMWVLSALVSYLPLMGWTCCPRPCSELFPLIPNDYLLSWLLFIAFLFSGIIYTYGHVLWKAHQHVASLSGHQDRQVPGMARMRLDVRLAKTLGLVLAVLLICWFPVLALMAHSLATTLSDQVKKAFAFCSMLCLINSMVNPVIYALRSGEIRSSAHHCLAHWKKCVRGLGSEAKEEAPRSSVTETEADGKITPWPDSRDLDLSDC

[23] = test system: sphingosine-1-phosphate receptor; test: Lipid receptor screen, agonist/antagonist
[24] = In vivo pharmacokinetic study, plasma and brain exposure; design: species or system rat

fold improvement in GlyT2 activity ([6]; relative to 14): ~ 9 fold
SMILES: CCCCCCCC/C=C\CCCCCCCC(=O)N[C@@H](CCSC)C(=O)O [Compound 12, (2S)-4-methylsulfanyl-2-[[(Z)-octadec-9-enoyl]amino]butanoic acid]

fold less potent than 10 at GlyT2 ([6]; relative to 10): 2 fold
SMILES: CCCCCCCC/C=C\CCCCCCCC(=O)N[C@@H](CCCC)C(=O)O [Compound 14, (2S)-2-[[(Z)-octadec-9-enoyl]amino]hexanoic acid]

inhibition of GlyT1 glycine currents [7]: not reduced
mechanism of GlyT2 inhibition [8]: non-competitive inhibitor
half-life at 1000 ng/mL ([9]; human, human plasma (pooled)): > 17 h
fold improvement of degradation half-life ([10]; rat plasma, relative to 4): ~ 3 fold
stability in human liver microsomes [11]: stable
half-life at 1 μM [11]: > 4.25 h
stability in rat liver microsomes [12]: rapidly metabolised
SMILES: CCCCCCCC/C=C\CCCCCCCC(=O)N[C@@H](CCCCN)C(=O)O.Cl [Compound 32, (2S)-6-amino-2-[[(Z)-octadec-9-enoyl]amino]hexanoic acid.HCl]

inhibition of GlyT1 glycine currents [7]: little inhibition
recovery of transport after washout [13]: completely restored
degradation in human plasma [9]: did not exhibit measurable degradation
degradation in rat plasma [10]: did not exhibit measurable degradation
stability in human liver microsomes [11]: stable
half-life at 1 μM [11]: > 4.25 h
stability in rat liver microsomes [12]: minimally degraded
half-life at 1 μM ([12]; rat, rat liver microsomes, pH 7.4): > 4.25 h
displacement of radioactive ligands [14]: greater than 50%
displacement of radioactive ligands [15]: greater than 50%
displacement of radioactive ligands [16]: greater than 50%
activity as a μOR agonist or antagonist [17]: no activity
inhibition of α7 nicotinic acetylcholine receptors [20]: no significant inhibition
activity as agonist or antagonist at CB1 [21]: no activity
activity as agonist or antagonist at CB2 [22]: no activity
activity as agonist or antagonist at sphingosine-1-phosphate receptor [23]: no activity
concentration of unbound drug (Cunbound) in brain at Cmax ([24]; 27.5 mg/kg ip): approximately 90 nM
Cmax Brain ([24]; single 27.5 mg/kg ip, Sprague Dawley rats): 1854 ng/g
SMILES: CCCCCCCC/C=C\CCCCCCCC(=O)N[C@H](CCCCN)C(=O)O.Cl [Compound 33, (2R)-6-amino-2-[[(Z)-octadec-9-enoyl]amino]hexanoic acid.HCl]
inhibition of Nav channels [18]: no significant inhibition
inhibition of Cav channels [19]: no significant inhibition
reversal of allodynia (analgesia) [3]: significant analgesia; also recorded: Significant reversal of allodynia
duration of side effects post injection [4]: up to 15 min
side effects [4]: Mild side effects

fold reduction of GlyT2 potency ([6]; relative to 32): ~ 22 fold
SMILES: CCCCCCCC/C=C\CCCCCCCC(=O)NCCCCCN.Cl [Compound 37, (Z)-N-(5-aminopentyl)octadec-9-enamide.HCl]

The remaining lines, values behind:

SMILES: N[C@@H](COC(c1cccc(F)c1)c1ccccc1OCc1ccccc1)C(=O)O (stereo partly shown) [Compound 1, ALX1393]
IC50 [1]: 100 nM
ratio of unbound drug in brain and plasma (Kp,uu) [2]: 0.05

SMILES: COc1cc(C(=O)NCC2(N(C)C)CCCC2)cc(OC)c1OCc1ccccc1 [Compound 2, ORG25543]
reversal of allodynia (analgesia) [3]: Non-significant reversal of allodynia
animals with side effects [4]: 4 out of the 6
duration of side effects post injection [4]: up to 60 min
side effects [4]: more severe side effects
IC50 [1]: 16 nM
activity at GlyT1 [5]: no appreciable activity

SMILES: CCCCCCCC/C=C\CCCCCCCC(=O)NCC(=O)O [Compound 4, N-oleoyl glycine]
effect on GlyT1 ([5]; concentrations up to 10 μM): no effect

SMILES: CCCCC/C=C\C/C=C\C/C=C\C/C=C\CCCC(=O)NCC(=O)O [Compound 5, N-arachidonyl glycine]
activity at GlyT1 [5]: little activity

— publication PMC6420064 (Journal of medicinal chemistry, 2019)
